From ChEMBL document CHEMBL1149781, “New glycosidic derivatives of histidine-containing dipeptides with antioxidant properties and resistant to carnosinase activity” (Eur J Med Chem, 2008)

Key:
Assay type in all cases: functional
[1] = Antioxidant activity against copper-induced lipid peroxidation in human LDL assessed as inhibition of malondialdehyde formation
[2] = Antioxidant activity against copper-induced lipid peroxidation in human LDL assessed as inhibition of malondialdehyde formation at 10 uM relative to control; set-up: scale not given: the % may be the effect or the level left
[3] = Antioxidant activity against copper-induced lipid peroxidation in human LDL assessed as inhibition of malondialdehyde formation at 100 uM relative to control; set-up: scale not given: the % may be the effect or the level left
[4] = Antioxidant activity against copper-induced lipid peroxidation in human LDL assessed as inhibition of malondialdehyde formation at 200 uM relative to control; set-up: scale not given: the % may be the effect or the level left
[5] = Antioxidant activity against copper-induced lipid peroxidation in human LDL assessed as inhibition of malondialdehyde formation at 50 uM relative to control; set-up: scale not given: the % may be the effect or the level left
[6] = Antioxidant activity against copper-induced lipid peroxidation in human LDL assessed as inhibition of malondialdehyde formation at 20 uM relative to control; set-up: scale not given: the % may be the effect or the level left
[7] = Antioxidant activity against copper-induced lipid peroxidation in human LDL assessed as inhibition of malondialdehyde formation at 2 uM relative to control; set-up: scale not given: the % may be the effect or the level left
[8] = Antioxidant activity against copper-induced lipid peroxidation in human LDL assessed as inhibition of malondialdehyde formation at 5 uM relative to control; set-up: scale not given: the % may be the effect or the level left

Row | SMILES | IC50 [1] | Activity [2] | Activity [3] | Activity [4] | Activity [5] | Activity [6] | Activity [7] | Activity [8]
1 | O=C(CCN[C@@H]1[C@@H](O)[C@H]2O[C@H]3[C@H](O)[C@@H](O)[C@@H](O[C@H]4[C@H](O)[C@@H](O)[C@@H](O[C@H]5[C@H](O)[C@@H](O)[C@@H](O[C@H]6[C@H](O)[C@@H](O)[C@@H](O[C@H]7[C@H](O)[C@@H](O)[C@@H](O[C@H]8[C@H](O)[C@@H](O)[C@@H](O[C@@H]1[C@@H](CO)O2)O[C@@H]8CO)O[C@@H]7CO)O[C@@H]6CO)O[C@@H]5CO)O[C@@H]4CO)O[C@@H]3CO)NC(Cc1cnc[nH]1)C(=O)O (some centres not stated) | 23.4 µM |  |  |  |  |  |  | 
2 | Cn1cncc1C[C@H](NC(=O)CCN)C(=O)O |  | 1.05% | 12.2% | 18.7% | 8.55% | 2.14% | 0.23% | 0.51%
3 | OC[C@H]1O[C@@H]2O[C@H]3[C@H](O)[C@@H](O)[C@@H](O[C@H]4[C@H](O)[C@@H](O)[C@@H](O[C@H]5[C@H](O)[C@@H](O)[C@@H](O[C@H]6[C@H](O)[C@@H](O)[C@@H](O[C@H]7[C@H](O)[C@@H](O)[C@@H](O[C@H]8[C@H](O)[C@@H](O)[C@@H](O[C@H]1[C@H](O)[C@H]2O)O[C@@H]8CO)O[C@@H]7CO)O[C@@H]6CO)O[C@@H]5CO)O[C@@H]4CO)O[C@@H]3CO |  | 0.65% | 6.94% | 10.7% | 3.87% | 1.26% | 0.11% | 0.38%

Continued, in another order:

Row | IC50 [1] | SMILES | Activity [2] | Activity [3] | Activity [4] | Activity [5] | Activity [6] | Activity [7] | Activity [8]
4 | 41.6 µM | Cn1cncc1CC(NC(=O)CCN[C@@H]1[C@@H](O)[C@H]2O[C@H]3[C@H](O)[C@@H](O)[C@@H](O[C@H]4[C@H](O)[C@@H](O)[C@@H](O[C@H]5[C@H](O)[C@@H](O)[C@@H](O[C@H]6[C@H](O)[C@@H](O)[C@@H](O[C@H]7[C@H](O)[C@@H](O)[C@@H](O[C@H]8[C@H](O)[C@@H](O)[C@@H](O[C@@H]1[C@@H](CO)O2)O[C@@H]8CO)O[C@@H]7CO)O[C@@H]6CO)O[C@@H]5CO)O[C@@H]4CO)O[C@@H]3CO)C(=O)O (some centres not stated) |  |  |  |  |  |  | 
5 | 88.7 µM | Cn1cncc1CC(NC(=O)CCNC[C@H]1O[C@@H]2O[C@H]3[C@H](O)[C@@H](O)[C@@H](O[C@H]4[C@H](O)[C@@H](O)[C@@H](O[C@H]5[C@H](O)[C@@H](O)[C@@H](O[C@H]6[C@H](O)[C@@H](O)[C@@H](O[C@H]7[C@H](O)[C@@H](O)[C@@H](O[C@H]8[C@H](O)[C@@H](O)[C@@H](O[C@H]1[C@H](O)[C@H]2O)O[C@@H]8CO)O[C@@H]7CO)O[C@@H]6CO)O[C@@H]5CO)O[C@@H]4CO)O[C@@H]3CO)C(=O)O (some centres not stated) |  |  |  |  |  |  | 
